Measured values taken from paper PMC7600264, “Quasi-Irreversible Inhibition of CYP2D6 by Berberine” (Pharmaceutics, 2020).
Read-outs that look alike come from different tables or passages of the source.

How the values were obtained:
[1] = tested on: CYP enzymes (range over all CYP enzymes tested); test: Direct CYP inhibition assay using pooled HLM, all CYP enzymes tested; format: in vitro ADME, human; conditions: human, pooled human liver microsomes, pH 7.4, read-out: IC50 values, range over all CYP enzymes tested (pan-CYP inhibitory activities)
Method: (§1) The enzyme reactions were initiated by adding NADPH (1 mM), and the mixtures were incubated at 37 °C for 5 min in a shaking water bath (100 rpm). The reaction was terminated by adding ice-cold acetonitrile (ACN) containing CBZ (100 nM) and 4-methyl-umbelliferone (300 nM) as internal standards (IS).
(§2) The chromatographic separation was performed on an Agilent 1200 series HPLC system (Agilent Technologies, Santa Clara, CA, USA) equipped with an Atlantis^TM dC18 column (2.1 × 50 mm, 3 µm; Waters Corporation, Milford, MA, USA) with a SecuityGuard^TM C18 guard column (2.0 × 4.0 mm; Phenomenex, Torrance, CA, USA). The mobile phases consisted of double-deionized water (DDW) containing 0.1% (v/v) of formic acid (A) and ACN containing 0.1% (v/v) formic acid (B). […] The sample injection volume was 10 µL, and the total run time was 9.0 min. The column and auto-sampler compartments were maintained at 30 °C and 10 °C, respectively, throughout the analysis. The detection was performed using an API4000 Q-TRAP system equipped with a Turbo V Ion Spray^TM source (Applied Biosystems, Foster City, CA, USA). […] The samples were analyzed via multiple reaction monitoring (MRM) mode. […]

CYP1A2 = target: T1, CYP1A2 (Homo sapiens, UniProt P05177); test: Direct CYP inhibition assay using pooled HLM
T1 sequence (P05177 1-516): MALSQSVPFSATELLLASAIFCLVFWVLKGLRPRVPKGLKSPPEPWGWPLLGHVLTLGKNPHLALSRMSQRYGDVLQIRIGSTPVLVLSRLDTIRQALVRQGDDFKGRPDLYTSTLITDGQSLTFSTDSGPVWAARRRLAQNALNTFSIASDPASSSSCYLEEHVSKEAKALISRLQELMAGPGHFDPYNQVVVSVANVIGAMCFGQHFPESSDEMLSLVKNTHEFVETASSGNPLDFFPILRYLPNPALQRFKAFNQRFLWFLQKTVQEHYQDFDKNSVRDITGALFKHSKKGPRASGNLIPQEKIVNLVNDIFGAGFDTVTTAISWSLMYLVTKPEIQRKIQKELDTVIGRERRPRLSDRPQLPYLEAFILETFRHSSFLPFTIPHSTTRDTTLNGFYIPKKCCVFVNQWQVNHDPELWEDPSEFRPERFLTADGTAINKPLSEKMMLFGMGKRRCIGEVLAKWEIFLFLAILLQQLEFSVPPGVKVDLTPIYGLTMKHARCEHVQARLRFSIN
Method: as §1
(§3) The chromatographic separation was performed on an Agilent 1200 series HPLC system (Agilent Technologies, Santa Clara, CA, USA) equipped with an Atlantis^TM dC18 column (2.1 × 50 mm, 3 µm; Waters Corporation, Milford, MA, USA) with a SecuityGuard^TM C18 guard column (2.0 × 4.0 mm; Phenomenex, Torrance, CA, USA). The mobile phases consisted of double-deionized water (DDW) containing 0.1% (v/v) of formic acid (A) and ACN containing 0.1% (v/v) formic acid (B). […] The sample injection volume was 10 µL, and the total run time was 9.0 min. The column and auto-sampler compartments were maintained at 30 °C and 10 °C, respectively, throughout the analysis. The detection was performed using an API4000 Q-TRAP system equipped with a Turbo V Ion Spray^TM source (Applied Biosystems, Foster City, CA, USA). The operating conditions were optimized as follows: ionization voltage: 5500 V for positive-ion mode and −4500 V for negative-ion mode; ion source temperature: 550 °C; nebulizing gas flow: 50 L/min; auxiliary gas flow: 40 L/min; and curtain gas flow: 30 L/min. The samples were analyzed via multiple reaction monitoring (MRM) mode. […] The data acquisition and processing were performed using Analyst^TM software (version 1.5.2; Applied Biosystems, Foster City, CA, USA).

CYP2A6 = target: T2, CYP2A6 (Homo sapiens, UniProt P11509); test: Direct CYP inhibition assay using pooled HLM
T2 sequence (P11509 1-494): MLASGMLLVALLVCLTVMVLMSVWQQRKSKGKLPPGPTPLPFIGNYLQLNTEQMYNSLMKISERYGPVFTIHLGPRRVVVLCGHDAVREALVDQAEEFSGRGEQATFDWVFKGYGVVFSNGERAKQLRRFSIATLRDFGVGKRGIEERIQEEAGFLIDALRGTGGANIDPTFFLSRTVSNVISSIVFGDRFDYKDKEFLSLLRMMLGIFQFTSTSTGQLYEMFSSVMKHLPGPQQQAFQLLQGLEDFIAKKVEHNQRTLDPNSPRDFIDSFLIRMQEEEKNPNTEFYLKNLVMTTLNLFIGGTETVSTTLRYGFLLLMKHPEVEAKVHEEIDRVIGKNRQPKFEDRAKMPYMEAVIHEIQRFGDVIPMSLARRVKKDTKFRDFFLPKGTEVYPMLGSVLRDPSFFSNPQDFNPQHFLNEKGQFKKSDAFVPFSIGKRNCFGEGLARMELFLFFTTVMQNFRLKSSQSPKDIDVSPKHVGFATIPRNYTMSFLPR
Method: as §1, §3

CYP2B6 = target: T3, CYP2B6 (Homo sapiens, UniProt P20813); test: Direct CYP inhibition assay using pooled HLM
T3 sequence (P20813 1-491): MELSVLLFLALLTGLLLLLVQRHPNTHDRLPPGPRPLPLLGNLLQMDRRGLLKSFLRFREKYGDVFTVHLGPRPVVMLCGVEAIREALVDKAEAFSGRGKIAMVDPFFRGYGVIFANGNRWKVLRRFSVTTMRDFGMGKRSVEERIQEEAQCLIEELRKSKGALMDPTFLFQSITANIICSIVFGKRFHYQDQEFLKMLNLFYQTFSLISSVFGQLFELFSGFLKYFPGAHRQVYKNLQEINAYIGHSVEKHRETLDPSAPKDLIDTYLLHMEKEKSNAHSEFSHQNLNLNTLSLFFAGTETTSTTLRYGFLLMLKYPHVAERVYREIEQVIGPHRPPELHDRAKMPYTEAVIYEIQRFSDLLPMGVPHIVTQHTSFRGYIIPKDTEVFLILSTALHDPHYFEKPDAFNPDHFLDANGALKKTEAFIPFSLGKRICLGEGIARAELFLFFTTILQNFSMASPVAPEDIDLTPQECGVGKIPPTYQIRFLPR
Method: as §1, §3

CYP2C8 = target: T4, CYP2C8 (Homo sapiens, UniProt P10632); test: Direct CYP inhibition assay using pooled HLM
T4 sequence (P10632 1-490): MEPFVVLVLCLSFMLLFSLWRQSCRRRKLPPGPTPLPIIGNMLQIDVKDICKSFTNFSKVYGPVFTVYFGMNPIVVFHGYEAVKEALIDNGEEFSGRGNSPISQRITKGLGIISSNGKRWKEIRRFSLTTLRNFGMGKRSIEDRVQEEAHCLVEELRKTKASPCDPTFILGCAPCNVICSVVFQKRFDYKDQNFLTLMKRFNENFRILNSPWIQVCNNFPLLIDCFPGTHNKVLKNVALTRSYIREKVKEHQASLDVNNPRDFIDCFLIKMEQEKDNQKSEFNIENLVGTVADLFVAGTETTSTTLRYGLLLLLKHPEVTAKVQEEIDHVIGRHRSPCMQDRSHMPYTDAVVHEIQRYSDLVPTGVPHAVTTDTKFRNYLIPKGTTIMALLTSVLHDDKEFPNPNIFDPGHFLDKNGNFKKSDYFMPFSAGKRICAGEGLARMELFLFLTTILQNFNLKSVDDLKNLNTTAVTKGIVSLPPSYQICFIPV
Method: as §1, §3

CYP2C9 = CYP2C9 (Homo sapiens, UniProt P11712); test: Direct CYP inhibition assay using pooled HLM
Method: as §1, §3

CYP2C19 = CYP2C19 (Homo sapiens, UniProt P33261); test: Direct CYP inhibition assay using pooled HLM
Method: as §1, §3

CYP2D6 [2] = target: T5, CYP2D6 (Homo sapiens, UniProt P10635); test: Direct CYP inhibition assay using pooled HLM
Method: as §1, §3

CYP2E1 = CYP2E1 (Homo sapiens, UniProt P05181); test: Direct CYP inhibition assay using pooled HLM
Method: as §1, §3

CYP3A4 = CYP3A4 (Homo sapiens, UniProt P08684); test: Direct CYP inhibition assay using pooled HLM; conditions: for IC50: direct inhibition, 95% confidence intervals in parentheses
Method: as §1, §3

[3] = Metabolic stability and metabolite formation of BBR in pooled HLM; conditions: BBR 1 µM in pooled HLM with NADPH-generating system, mean ± SD
Method: To evaluate NADPH-dependent metabolism, BBR (1 µM) was incubated with pooled HLM (1 mg/mL) in the presence of the NADPH-regenerating system (1 mM of NADP^+, 5 mM of G6P, and 1 U/mL of G6PDH) to be a final volume of 200 µL. The reactions were quenched by adding the same volume of ice-cold ACN containing CBZ (100 nM) at 0, 7.5, 15, 30, 60, and 120 min of incubation. The incubation mixtures were centrifuged at 1000× g for 20 min at 4 °C, and the supernatants were analyzed by the LC-MS/MS system described in Section 2.2.
Meanwhile, to identify the known metabolites of BBR, an aliquot (5 µL) of the supernatant was injected into an accurate-MS system consisting of an Agilent 6530 Q-TOF LC/MS equipped with dual AJS ESI ion source (Agilent Technologies) and Agilent 1200 series HPLC system (Agilent Technologies). Chromatographic separations were performed on an Agilent Eclipse Plus C18 column (150 × 2.1 mm, 3.5 µm; Agilent Technologies) by gradient elution with a binary mobile phase consisting of DDW with 0.1% (v/v) formic acid (A) and ACN with 0.1% (v/v) formic acid (B) at a flow rate of 0.2 mL/min, where the mobile phase B was set as follows: 2% at 0 min, 20% at 15 min, and 30% at 20–25 min, followed by re-equilibration for 3 min.
In vitro metabolic stability parameters, including half-life (t1/2) and microsomal intrinsic clearance (CLint,mic), were determined according to our previous report [32]. The degradation t1/2 values of the microsomal stability studies were calculated using the following Equation (2):(2) t1/2=0.693/k, where k represents the first-order degradation rate constant. The k values were estimated by fitting a one-phase exponential decay model to the parent drug remaining (%) vs. incubation time plots using GraphPad Prism 5.0 (GraphPad Software Inc., San Diego, CA, USA).
The CLint,mic was determined using the in vitro half-life approach.

[4] = format: in vitro ADME, human; conditions: human, 1 µM
Method: Table 3. Putative M1 metabolite produced in pooled HLM incubated with thalifendine or
Precursor molecules Incubation time (min)a M1 signal at m/z 310 (103 × cps)b
Demethyleneberberine 0 107 ± 3
a Thalifendine or demethyleneberberine (1 μM) was incubated with pooled HLM in the presence of
NADPH-generating system; b Each value represents the mean ± SD for three separate samples. […]

CYP2D6 [5] = target: T5, CYP2D6; test: Metabolism-dependent CYP2D6 inhibition assay (IC50 shift) using pooled HLM; conditions: for MDI (metabolism-dependent inhibition) of CYP2D6 (in words): pre-incubation with NADPH
Method: Pre-incubation was performed in pooled HLM (0.2 mg/mL) added with BBR, THB, TFD, or DMB, or rhCYP2D6 (10 pmol/mL) added with BBR, with or without NADPH (1 mM) in phosphate buffer (0.1 M; pH 7.4) for 30 min. Then, the CYP2D6 substrate (5 µM of dextromethorphan) and NADPH (1 mM) were added to the mixture and incubated for another 10 min. All incubations were carried out at 37 °C in a shaking water bath (100 rpm) using eight-well tube strips placed in an 8 × 12 rack, where the final volume of each reaction mixture was 200 µL. […] The enzyme reactions were quenched by adding an aliquot (200 µL) of ice-cold ACN containing CBZ (100 nM) as an IS. The samples were centrifuged, and the concentration of CYP2D6 metabolite (i.e., dextrorphan, produced by O-demethylation of dextromethorphan) in supernatants were analyzed using the LC-MS/MS method described in Section 2.2.

CYP enzymes = test: Direct CYP inhibition assay using pooled HLM, all CYP enzymes tested; format: in vitro ADME, human; conditions: read-out: IC50 values, range over all CYP enzymes tested (pan-CYP inhibitory activities)
Method: as §1, §2

[6] = IC50 CYP3A4 (MDZ), substrate MDZ
[7] = IC50 CYP3A4 (TST), substrate TST

CYP2E1, sequence (P05181 whole entry): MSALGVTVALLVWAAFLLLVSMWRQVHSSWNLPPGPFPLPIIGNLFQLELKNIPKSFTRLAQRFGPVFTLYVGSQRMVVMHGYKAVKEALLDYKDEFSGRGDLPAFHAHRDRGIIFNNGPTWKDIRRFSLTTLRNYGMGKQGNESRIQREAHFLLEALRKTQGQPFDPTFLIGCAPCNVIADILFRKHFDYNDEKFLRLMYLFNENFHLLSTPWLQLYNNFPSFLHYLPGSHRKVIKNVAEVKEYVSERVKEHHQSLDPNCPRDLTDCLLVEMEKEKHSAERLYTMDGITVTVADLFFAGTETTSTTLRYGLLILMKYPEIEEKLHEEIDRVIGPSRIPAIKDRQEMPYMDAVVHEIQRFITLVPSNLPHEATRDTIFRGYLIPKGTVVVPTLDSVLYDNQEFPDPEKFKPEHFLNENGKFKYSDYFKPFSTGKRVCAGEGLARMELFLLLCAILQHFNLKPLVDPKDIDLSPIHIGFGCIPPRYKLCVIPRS
T5 sequence (P10635 whole entry): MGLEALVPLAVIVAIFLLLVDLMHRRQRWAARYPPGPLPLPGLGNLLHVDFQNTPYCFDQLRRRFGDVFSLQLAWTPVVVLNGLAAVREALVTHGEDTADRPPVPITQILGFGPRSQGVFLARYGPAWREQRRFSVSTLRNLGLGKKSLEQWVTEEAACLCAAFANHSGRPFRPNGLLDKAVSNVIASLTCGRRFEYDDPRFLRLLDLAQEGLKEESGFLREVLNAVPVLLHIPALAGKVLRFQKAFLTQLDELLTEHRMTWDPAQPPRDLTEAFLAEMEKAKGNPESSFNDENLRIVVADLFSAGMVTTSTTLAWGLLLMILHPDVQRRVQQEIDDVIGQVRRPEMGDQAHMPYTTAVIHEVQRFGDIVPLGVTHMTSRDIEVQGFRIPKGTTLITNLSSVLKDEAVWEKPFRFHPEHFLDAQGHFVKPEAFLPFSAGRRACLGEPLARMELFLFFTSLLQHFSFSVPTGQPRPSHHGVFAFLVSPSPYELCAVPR
CYP3A4, sequence (P08684 whole entry): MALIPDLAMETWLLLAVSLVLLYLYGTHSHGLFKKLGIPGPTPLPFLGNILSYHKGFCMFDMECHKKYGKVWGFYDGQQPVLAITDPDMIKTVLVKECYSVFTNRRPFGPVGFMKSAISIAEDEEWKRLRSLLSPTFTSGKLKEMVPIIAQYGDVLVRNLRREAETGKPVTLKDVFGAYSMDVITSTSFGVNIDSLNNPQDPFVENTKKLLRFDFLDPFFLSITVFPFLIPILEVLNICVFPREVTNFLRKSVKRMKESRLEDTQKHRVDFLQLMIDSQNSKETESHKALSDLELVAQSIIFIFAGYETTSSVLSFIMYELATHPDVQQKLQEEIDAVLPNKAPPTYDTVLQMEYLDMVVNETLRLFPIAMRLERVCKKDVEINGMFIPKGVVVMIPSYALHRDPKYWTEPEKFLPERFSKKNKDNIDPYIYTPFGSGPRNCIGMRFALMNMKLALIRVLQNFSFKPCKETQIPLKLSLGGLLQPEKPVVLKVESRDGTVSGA
CYP2C9, sequence (P11712 whole entry): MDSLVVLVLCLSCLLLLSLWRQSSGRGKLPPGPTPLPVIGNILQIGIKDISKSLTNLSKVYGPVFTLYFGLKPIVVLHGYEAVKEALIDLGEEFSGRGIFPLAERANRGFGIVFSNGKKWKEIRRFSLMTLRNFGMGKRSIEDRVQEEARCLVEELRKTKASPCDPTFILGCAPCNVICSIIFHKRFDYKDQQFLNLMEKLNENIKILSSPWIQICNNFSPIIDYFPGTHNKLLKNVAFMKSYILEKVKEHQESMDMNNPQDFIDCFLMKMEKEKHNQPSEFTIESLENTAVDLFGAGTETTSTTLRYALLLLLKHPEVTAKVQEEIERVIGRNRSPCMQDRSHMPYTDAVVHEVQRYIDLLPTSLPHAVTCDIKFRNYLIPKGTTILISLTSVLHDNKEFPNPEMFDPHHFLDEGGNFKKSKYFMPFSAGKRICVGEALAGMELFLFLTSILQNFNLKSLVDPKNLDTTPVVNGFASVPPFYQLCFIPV
CYP2C19, sequence (P33261 whole entry): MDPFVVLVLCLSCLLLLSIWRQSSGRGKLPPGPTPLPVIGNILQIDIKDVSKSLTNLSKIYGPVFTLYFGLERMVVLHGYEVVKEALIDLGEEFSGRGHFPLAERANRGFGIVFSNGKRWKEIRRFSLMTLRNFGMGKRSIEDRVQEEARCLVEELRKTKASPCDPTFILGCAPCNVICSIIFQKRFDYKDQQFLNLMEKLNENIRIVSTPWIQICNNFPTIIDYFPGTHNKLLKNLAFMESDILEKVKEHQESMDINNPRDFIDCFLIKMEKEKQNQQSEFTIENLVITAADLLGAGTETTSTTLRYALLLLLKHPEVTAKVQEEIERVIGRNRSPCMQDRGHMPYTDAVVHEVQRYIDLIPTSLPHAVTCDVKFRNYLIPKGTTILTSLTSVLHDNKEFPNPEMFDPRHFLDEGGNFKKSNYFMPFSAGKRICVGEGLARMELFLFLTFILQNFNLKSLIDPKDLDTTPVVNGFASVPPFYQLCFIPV

IC50 (CYP1A2) [µM]	IC50 (CYP2A6) [µM]	IC50 (CYP2B6) [µM]	IC50 (CYP2C8) [µM]	IC50 (CYP2C9) [µM]	IC50 (CYP2C19) [µM]	IC50 (CYP2D6 [2]) [µM]	IC50 (CYP2E1) [µM]	IC50 (CYP3A4; [6]) [µM]	IC50 (CYP3A4; [7]) [µM]	Concentration in incubation mixture (elimination of BBR and formation of its metabolites) ([3]; 0 min) [µM]	Concentration in incubation mixture (elimination of BBR and formation of its metabolites) ([3]; 7.5 min) [µM]	Concentration in incubation mixture (elimination of BBR and formation of its metabolites) ([3]; 15 min) [µM]	Concentration in incubation mixture (elimination of BBR and formation of its metabolites) ([3]; 30 min) [µM]	Concentration in incubation mixture (elimination of BBR and formation of its metabolites) ([3]; 60 min) [µM]	Concentration in incubation mixture (elimination of BBR and formation of its metabolites) ([3]; 120 min) [µM]	Compound	MDI (metabolism-dependent inhibition) of CYP2D6 (in words) (CYP2D6 [5]; pooled HLM)	further results
51	17	96	72	57	49	45	34	28	45	0.0054 ± 0.0001	0.0056 ± 0	0.0058 ± 0.0001	0.006 ± 0.0001	0.0061 ± 0	0.0062 ± 0	COc1ccc2cc3[n+](cc2c1O)CCc1cc2c(cc1-3)OCO2 [BRB, berberrubine]	–	IC50 at 5 min [1]: 17 to 96 µM
> 100	> 100	> 100	> 100	> 100	> 100	28	32	> 100	> 100	0.0054 ± 0.0001	0.0209 ± 0.0004	0.0333 ± 0.0006	0.0443 ± 0.001	0.0504 ± 0.0007	0.0493 ± 0.001	COc1c(O)ccc2cc3[n+](cc12)CCc1cc2c(cc1-3)OCO2 [TFD, thalifendine]	exhibited MDI	M1 signal at m/z 310 ([4]; 0 min): 6 ± 1 103 × cps; M1 signal at m/z 310 ([4]; 30 min): 2200 ± 125 103 × cps; IC50 (CYP2D6 [5]; IC50 against CYP2D6, pre-incubation with NADPH, pooled HLM, 30 min pre-incubation with NADPH): 6.49 µM; IC50 (CYP2D6 [5]; IC50 against CYP2D6, pre-incubation without NADPH, pooled HLM, 30 min pre-incubation without NADPH): 20.6 µM; IC50 shift at 10 min (CYP2D6 [5]; human, pooled human liver microsomes, pH 7.4, probe dextromethorphan (5 µM)): 3.2
–	–	–	–	–	–	–	–	–	–	–	–	–	–	–	–	COc1ccc2c(c1OC)CN1CCc3cc4c(cc3C1C2)OCO4 (stereo not drawn) [THB, tetrahydroberberine]	exhibited MDI	Inhibition of CYP1A2 (in words) (CYP1A2; pooled HLM, up to 100 µM): not markedly inhibited; Inhibition of CYP2A6 (in words) (CYP2A6; pooled HLM, up to 100 µM): not markedly inhibited; Inhibition of CYP2B6 (in words) (CYP2B6; pooled HLM, up to 100 µM): not markedly inhibited; Inhibition of CYP2C8 (in words) (CYP2C8; pooled HLM, up to 100 µM): not markedly inhibited; Inhibition of CYP2C9 (in words) (CYP2C9; pooled HLM, up to 100 µM): not markedly inhibited; Inhibition of CYP2C19 (in words) (CYP2C19; pooled HLM, up to 100 µM): not markedly inhibited; IC50 (CYP2D6 [2]; read-out: IC50 CYP2D6, pooled HLM, direct inhibition, substrate dextromethorphan, 95% confidence intervals in parentheses): 0.97 µM; Inhibition of CYP2E1 (in words) (CYP2E1; pooled HLM, up to 100 µM): not markedly inhibited; Inhibition of CYP3A4 (in words) (CYP3A4; up to 100 µM, substrates MDZ and TST): not markedly inhibited; Fold reduction in IC50 against CYP2D6 (IC50 shift) (CYP2D6 [5]; pooled HLM, pre-incubation with vs without NADPH): 2.2 fold; IC50 (CYP2D6 [5]; read-out: IC50 against CYP2D6, pre-incubation with NADPH, pooled HLM, 30 min pre-incubation with NADPH): 0.306 µM; IC50 (CYP2D6 [5]; read-out: IC50 against CYP2D6, pre-incubation without NADPH, pooled HLM, 30 min pre-incubation without NADPH): 0.661 µM
–	–	–	–	–	–	–	–	–	–	–	–	–	–	–	–	COc1ccc2c(c1O)CN1CCc3cc4c(cc3C1C2)OCO4 (stereo not drawn) [TRB, Tetrahydroberberrubine·acetate]	–	IC50 (CYP enzymes): 2.7 to 9.6 µM; IC50 (CYP1A2; microsomes): 6.9 µM; IC50 (CYP2A6; microsomes): 4.7 µM; IC50 (CYP2B6; read-out: IC50 CYP2B6, pooled HLM, direct inhibition, 95% confidence intervals in parentheses): 9.6 µM; IC50 (CYP2C8; microsomes): 9.5 µM; IC50 (CYP2C9; microsomes): 6.5 µM; IC50 (CYP2C19; read-out: IC50 CYP2C19, pooled HLM, direct inhibition, 95% confidence intervals in parentheses): 5.4 µM; IC50 (CYP2D6 [2]; microsomes): 3.4 µM; IC50 (CYP2E1; read-out: IC50 CYP2E1, pooled HLM, direct inhibition, 95% confidence intervals in parentheses): 2.7 µM
–	–	–	–	–	–	–	–	–	–	–	–	–	–	–	–	demethylene-TFD [M1]	–	M1 (m/z = 310) signal formed from BBR ([3]; 0 min): 1.3 ± 0.25 1000 × cps; M1 (m/z = 310) signal formed from BBR ([3]; 7.5 min): 28 ± 0.66 1000 × cps; M1 (m/z = 310) signal formed from BBR ([3]; 15 min): 80 ± 0.31 1000 × cps; M1 (m/z = 310) signal formed from BBR ([3]; 30 min): 220 ± 2.6 1000 × cps; M1 (m/z = 310) signal formed from BBR ([3]; 60 min): 540 ± 15 1000 × cps; M1 (m/z = 310) signal formed from BBR ([3]; 120 min): 1100 ± 26 1000 × cps

Compound	IC50 (CYP1A2) [µM]	IC50 (CYP2A6) [µM]	IC50 (CYP2B6) [µM]	IC50 (CYP2C8) [µM]	IC50 (CYP2C9) [µM]	IC50 (CYP2C19) [µM]	IC50 (CYP2D6 [2]) [µM]	IC50 (CYP2E1) [µM]	IC50 (CYP3A4; [6]) [µM]	IC50 (CYP3A4; [7]) [µM]	Concentration in incubation mixture (elimination of BBR and formation of its metabolites) ([3]; 0 min) [µM]	Concentration in incubation mixture (elimination of BBR and formation of its metabolites) ([3]; 7.5 min) [µM]	Concentration in incubation mixture (elimination of BBR and formation of its metabolites) ([3]; 15 min) [µM]	Concentration in incubation mixture (elimination of BBR and formation of its metabolites) ([3]; 30 min) [µM]	Concentration in incubation mixture (elimination of BBR and formation of its metabolites) ([3]; 60 min) [µM]	Concentration in incubation mixture (elimination of BBR and formation of its metabolites) ([3]; 120 min) [µM]	MDI (metabolism-dependent inhibition) of CYP2D6 (in words) (CYP2D6 [5]; pooled HLM)	further results
COc1cc2c(cc1O)CC[n+]1cc3c(OC)c(OC)ccc3cc1-2 [JTZ, jatrorrhizine]	> 100	> 100	> 100	26	> 100	> 100	10	11	–	–	0.0104 ± 0.0003	0.0107 ± 0.0001	0.0109 ± 0.0003	0.0105 ± 0.0003	0.01 ± 0.0002	0.0096 ± 0.0002	–	–
